Values of other authors in patent US20050215571A1, “Therapeutic combination for cognititon enhancement and psychotic disorders” (Pfizer Inc., priority 2003, published 2005).

Columns and labels:
[1] = not given; remark: listed apart in the source

## O=C1Cc2cc(CCN3CCN(c4nsc5ccccc45)CC3)c(Cl)cc2N1 [Ziprasidone, 5-[2-[4-(1,2-benzisothiazol-3-yl)piperazin-1-yl]ethyl]-6-chloroindolin-2-one]
other
  protein binding: extensive
[1]; in vivo
  half-life: 6 to 7 h
[1]; oral, taken with food
  Oral bioavailability: approximately 60%
